Data set [1] concerns RAW264.7. The experiment in a line: Inhibition of LPS-induced NFkappaB transcriptional activity in mouse RAW264.7 cells at 10 uM preincubated for 2 hrs followed by LPS stimulation and measured after 6 hrs by luciferase reporter gene assay relative to control. It counts as cell-based. The note with it: time 8.0 hrs.
Data set [2] deals with RAW264.7. As to the kind of experiment: Inhibition of LPS-induced NFkappaB transcriptional activity in mouse RAW264.7 cells at 5 uM preincubated for 2 hrs followed by LPS stimulation and measured after 6 hrs by luciferase reporter gene assay relative to control. Format: cell-based. To be noted: time 8.0 hrs.
In data set [3] the test system is RAW264.7. As to the kind of experiment: Inhibition of LPS-induced NFkappaB transcriptional activity in mouse RAW264.7 cells at 20 uM preincubated for 2 hrs followed by LPS stimulation and measured after 6 hrs by luciferase reporter gene assay relative to control. Format: cell-based. To be noted: time 8.0 hrs. (Reporter assays use an easily measured gene product as a stand-in for the process of interest.)

Data set [4] in a line: Cytotoxicity against human LX-2 cells assessed as reduction in cell viability measured after 48 hrs by CCK-8 assay. It counts as toxicity, cell-based. Background: Formazan colour is commonly taken as a measure of viable cells.
Data set [5] concerns RAW264.7. As to the kind of experiment: Antiinflammatory activity in mouse RAW264.7 cells assessed as inhibition of TGFbeta1-induced collagen 1 expression at 5 to 20 uM preincubated for 2 hrs […] and measured after 48 hrs by Western blot analysis. It counts as functional, cell-based. To be noted: dose 5-20 µM, time 50.0 hrs.
Data set [6] deals with RAW264.7. The experiment in a line: Antiinflammatory activity in mouse RAW264.7 cells assessed as inhibition of TGFbeta1-induced alpha-SMA expression at 5 to 20 uM preincubated for 2 hrs […] and measured after 48 hrs by Western blot analysis. Format: functional, cell-based. To be noted: dose 5-20 µM, time 50.0 hrs. On the technique in general: Immunoblotting shows a protein as a band on a membrane.

Calls of active or inactive are those of the source. The calls are words filed in the database; no cut-off is given here.

A word on the IC50: it is the concentration that gives 50% inhibition. As for `COC(=O)CCC[C@@H]1[C@H]2CCCN3CCC[C@H](CN1C(=O)COC(=O)Cc1ccccc1Nc1c(Cl)cccc1Cl)[C@@H]23`, the fold change (FC) in data set [1] was determined as 0.93; in data set [2], 0.93; in data set [3], 0.81. Further, the IC50 at 48 h in data set [4] came to 14.7 µM.

For `O=C1CCC[C@@H]2[C@H]3CCCN4CCC[C@H](CN12)[C@@H]34` [SOPHORIDINE], the fold change (FC) in data set [1] was 0.94; in data set [2], 1.03; in data set [3], 1.05. Moreover, the inhibition entry in data set [5] and in data set [6] was “inactive” throughout. Further, the IC50 at 48 h in data set [4] was above 100 µM.

Take `COC(=O)CCC[C@@H]1[C@H]2CCCN3CCC[C@H](CN1C(=O)CC1=C(C)/C(=C/c4ccc([S+](C)[O-])cc4)c4ccc(F)cc41)[C@@H]23` (some centres not stated): the fold change (FC) worked out at 1 in data set [1], 0.99 in data set [2] and 0.99 in data set [3]. The IC50 at 48 h in data set [4] was found to be 61.8 µM.

`COC(=O)CCC[C@@H]1[C@H]2CCCN3CCC[C@H](CN1C(=O)C(C)c1ccc(-c4ccccc4)cc1)[C@@H]23` (some centres not stated): the fold change (FC) in data set [1] came out at 1.08; in data set [2] it was 1.01; in data set [3], 1.04. Besides, the concentration for half-maximal inhibition (IC50) at 48 h in data set [4] is 21.9 µM.

As to `COC(=O)CCC[C@@H]1[C@H]2CCCN3CCC[C@H](CN1C(=O)Cc1ccc(-n4c(C)ccc4C)cc1)[C@@H]23`, the fold change (FC) worked out at 0.93 in data set [1], 1.05 in data set [2] and 1.08 in data set [3]. In addition, the IC50 at 48 h in data set [4] was 96 µM.

For `COC(=O)CCC[C@@H]1[C@H]2CCCN3CCC[C@H](CN1C(=O)Cc1ccc(-c4ccccc4)c(F)c1)[C@@H]23`, the fold change (FC) was determined as 1.13 in data set [1], 0.97 in data set [2] and 1.04 in data set [3]. In data set [4], the IC50 at 48 h came to 14.5 µM.

Regarding `COC(=O)CCC[C@@H]1[C@H]2CCCN3CCC[C@H](CN1C(=O)C(C)c1ccc(CC(C)C)cc1)[C@@H]23` (some centres not stated), the values for the fold change (FC) in data set [1], in data set [2] and in data set [3] were 1.04, 1.03 and 1, respectively. The IC50 at 48 h in data set [4] turned out to be 53 µM.

`COC(=O)CCC[C@@H]1[C@H]2CCCN3CCC[C@H](CN1C(=O)Cc1ccc(-c4cccc(F)c4)cc1)[C@@H]23`: the results for the fold change (FC) in data set [1], in data set [2] and in data set [3] were 1.16, 1.21 and 1.04, respectively. Also, the half-maximal inhibitory concentration (IC50) at 48 h in data set [4] worked out at 53.3 µM.

For `COC(=O)CCC[C@@H]1[C@H]2CCCN3CCC[C@H](CN1C(=O)Cc1ccc(-c4ccccc4)cc1)[C@@H]23`, the figures for the fold change (FC) in data set [1], in data set [2] and in data set [3] were 0.94, 0.99 and 0.85, respectively. For the same compound, the IC50 at 48 h in data set [4] was found to be 31.7 µM.

Take `COC(=O)CCC[C@@H]1[C@H]2CCCN3CCC[C@H](CN1C(=O)[C@H](C)c1ccc4cc(OC)ccc4c1)[C@@H]23`: the fold change (FC) came out at 0.99 in data set [1], 1.02 in data set [2] and 0.94 in data set [3]. Further, the concentration for half-maximal inhibition (IC50) at 48 h in data set [4] was determined as 63.5 µM.

These data come from ChEMBL document CHEMBL6177933, “Discovery of Sophoridine α-Aryl Propionamide Derivative ZM600 as a Novel Antihepatic Fibrosis Agent” (J Med Chem, 2024).
